Reference: the NIST ThermoML archive (doi:10.1016/j.fluid.2007.04.030)

Key:
[1] = xn = mol fraction of the nth substance listed; settings: 101 kPa, Liquid
[2] = 101 kPa, Liquid

COc1cc2c(cc1O)CC1c3c(cc(O)c(OC)c3-2)CCN1C (stereo not drawn) [boldine] + CCCO
mass density [kg/m3], [1]
Settings | x1 = 0.00185 | x1 = 0.00374 | x1 = 0.00565 | x1 = 0.0076 | x1 = 0.00957 | x1 = 0.01158 | x1 = 0.01361
283.15 K | 814.99 | 818.36 | 821.77 | 825.23 | 828.61 | 832.08 | 835.59
288.15 K | 811.04 | 814.41 | 817.81 | 821.26 | 824.65 | 828.12 | 831.61
293.15 K | 807.05 | 810.42 | 813.82 | 817.26 | 820.65 | 824.12 | 827.61
298.15 K | 803.04 | 806.4 | 809.8 | 813.24 | 816.64 | 820.1 | 823.59
303.15 K | 799 | 802.35 | 805.75 | 809.2 | 812.59 | 816.05 | 819.54
308.15 K | 794.92 | 798.27 | 801.67 | 805.12 | 808.5 | 811.96 | 815.45
313.15 K | 790.81 | 794.14 | 797.55 | 800.98 | 804.37 | 807.83 | 811.31
318.15 K | 786.65 | 789.98 | 793.39 | 796.82 | 800.21 | 803.65 | 807.13
323.15 K | 782.43 | 785.77 | 789.17 | 792.6 | 795.99 | 799.42 | 802.91
328.15 K | 778.16 | 781.5 | 784.89 | 788.33 | 791.71 | 795.16 | 798.63
333.15 K | 773.81 | 777.16 | 780.54 | 783.99 | 787.37 | 790.82 | 794.3

CCCCO [butan-1-ol]
[2]
Settings | mass density [kg/m3]
283.15 K | 817.15
288.15 K | 813.38
293.15 K | 809.59
298.15 K | 805.77
303.15 K | 801.92
308.15 K | 798.05
313.15 K | 794.14
318.15 K | 790.19
323.15 K | 786.19
328.15 K | 782.14
333.15 K | 778.03

CCCCO [butan-1-ol] + COc1cc2c(cc1O)CC1c3c(cc(O)c(OC)c3-2)CCN1C
[1], x2 = 0
Settings | mass density [kg/m3]
283.15 K | 817.15
288.15 K | 813.38
293.15 K | 809.59
298.15 K | 805.77
303.15 K | 801.92
308.15 K | 798.05
313.15 K | 794.14
318.15 K | 790.19
323.15 K | 786.19
328.15 K | 782.14
333.15 K | 778.03

CCO [ethanol]
[2]
Settings | mass density [kg/m3]
283.15 K | 797.96
288.15 K | 793.71
293.15 K | 789.44
298.15 K | 785.15
303.15 K | 780.83
308.15 K | 776.48
313.15 K | 772.09
318.15 K | 767.65
323.15 K | 763.17
328.15 K | 758.63
333.15 K | 754.01

CCO [ethanol] + COc1cc2c(cc1O)CC1c3c(cc(O)c(OC)c3-2)CCN1C
[1], x2 = 0
Settings | mass density [kg/m3]
283.15 K | 797.96
288.15 K | 793.71
293.15 K | 789.44
298.15 K | 785.15
303.15 K | 780.83
308.15 K | 776.48
313.15 K | 772.09
318.15 K | 767.65
323.15 K | 763.17
328.15 K | 758.63
333.15 K | 754.01

CCCCCCO [hexan-1-ol]
[2]
Settings | mass density [kg/m3]
283.15 K | 827.82
288.15 K | 824.25
293.15 K | 820.65
298.15 K | 817.03
303.15 K | 813.39
308.15 K | 809.71
313.15 K | 806
318.15 K | 802.27
323.15 K | 798.49
328.15 K | 794.67
333.15 K | 790.8

CCCCCCO [hexan-1-ol] + COc1cc2c(cc1O)CC1c3c(cc(O)c(OC)c3-2)CCN1C
[1], x2 = 0
Settings | mass density [kg/m3]
283.15 K | 827.82
288.15 K | 824.25
293.15 K | 820.65
298.15 K | 817.03
303.15 K | 813.39
308.15 K | 809.71
313.15 K | 806
318.15 K | 802.27
323.15 K | 798.49
328.15 K | 794.67
333.15 K | 790.8

CO [methanol]
[2]
Settings | mass density [kg/m3]
283.15 K | 801.08
288.15 K | 796.41
293.15 K | 791.71
298.15 K | 787.01
303.15 K | 782.29
308.15 K | 777.55
313.15 K | 772.78
318.15 K | 767.97
323.15 K | 763.12
328.15 K | 758.23
333.15 K | 753.29

CO [methanol] + COc1cc2c(cc1O)CC1c3c(cc(O)c(OC)c3-2)CCN1C
[1], x2 = 0
Settings | mass density [kg/m3]
283.15 K | 801.08
288.15 K | 796.41
293.15 K | 791.71
298.15 K | 787.01
303.15 K | 782.29
308.15 K | 777.55
313.15 K | 772.78
318.15 K | 767.97
323.15 K | 763.12
328.15 K | 758.23
333.15 K | 753.29

CCCCCCCCO [octan-1-ol]
[2]
Settings | mass density [kg/m3]
283.15 K | 832.13
288.15 K | 828.71
293.15 K | 825.27
298.15 K | 821.81
303.15 K | 818.33
308.15 K | 814.84
313.15 K | 811.31
318.15 K | 807.76
323.15 K | 804.19
328.15 K | 800.58
333.15 K | 796.93

CCCCCCCCO [octan-1-ol] + COc1cc2c(cc1O)CC1c3c(cc(O)c(OC)c3-2)CCN1C
[1], x2 = 0
Settings | mass density [kg/m3]
283.15 K | 832.13
288.15 K | 828.71
293.15 K | 825.27
298.15 K | 821.81
303.15 K | 818.33
308.15 K | 814.84
313.15 K | 811.31
318.15 K | 807.76
323.15 K | 804.19
328.15 K | 800.58
333.15 K | 796.93

CCCCCO [pentan-1-ol]
[2]
Settings | mass density [kg/m3]
283.15 K | 822.42
288.15 K | 818.79
293.15 K | 815.13
298.15 K | 811.45
303.15 K | 807.74
308.15 K | 804.01
313.15 K | 800.24
318.15 K | 796.43
323.15 K | 792.57
328.15 K | 788.67
333.15 K | 784.72

CCCCCO [pentan-1-ol] + COc1cc2c(cc1O)CC1c3c(cc(O)c(OC)c3-2)CCN1C
[1], x2 = 0
Settings | mass density [kg/m3]
283.15 K | 822.42
288.15 K | 818.79
293.15 K | 815.13
298.15 K | 811.45
303.15 K | 807.74
308.15 K | 804.01
313.15 K | 800.24
318.15 K | 796.43
323.15 K | 792.57
328.15 K | 788.67
333.15 K | 784.72

CCCO [propan-1-ol]
[2]
Settings | mass density [kg/m3]
283.15 K | 811.57
288.15 K | 807.62
293.15 K | 803.63
298.15 K | 799.62
303.15 K | 795.58
308.15 K | 791.49
313.15 K | 787.37
318.15 K | 783.22
323.15 K | 779.01
328.15 K | 774.73
333.15 K | 770.39

CCCO [propan-1-ol] + COc1cc2c(cc1O)CC1c3c(cc(O)c(OC)c3-2)CCN1C
[1], x2 = 0
Settings | mass density [kg/m3]
283.15 K | 811.57
288.15 K | 807.62
293.15 K | 803.63
298.15 K | 799.62
303.15 K | 795.58
308.15 K | 791.49
313.15 K | 787.37
318.15 K | 783.22
323.15 K | 779.01
328.15 K | 774.73
333.15 K | 770.39

CC(C)O [propan-2-ol]
[2]
Settings | mass density [kg/m3]
283.15 K | 793.31
288.15 K | 789.22
293.15 K | 785.08
298.15 K | 780.87
303.15 K | 776.6
308.15 K | 772.25
313.15 K | 767.81
318.15 K | 763.28
323.15 K | 758.64
328.15 K | 753.88
333.15 K | 749.01

CC(C)O [propan-2-ol] + COc1cc2c(cc1O)CC1c3c(cc(O)c(OC)c3-2)CCN1C
[1], x2 = 0
Settings | mass density [kg/m3]
283.15 K | 793.31
288.15 K | 789.22
293.15 K | 785.08
298.15 K | 780.87
303.15 K | 776.6
308.15 K | 772.25
313.15 K | 767.81
318.15 K | 763.28
323.15 K | 758.64
328.15 K | 753.88
333.15 K | 749.01
